# Data reported in patent US20240366608A1, “PHARMACEUTICAL COMBINATIONS OF SOS1 INHIBITORS FOR TREATING AND/OR PREVENTING CANCER” (Lupin Limited, priority 2021, published 2024).
# Tests used:
# [1] = system: MIA PaCa-2 or SW1990 pancreatic cancer cells; assay: Colony formation assay, SOS1 inhibitor combined with targeted agents; format: cell-based, human; conditions: 7 days of drug treatment, crystal violet absorbance at 590 nm; combined with one or more of the agents listed
# Method: Compound 1, 2, 3, 3a, 3b, 4, 4a, 4b, 5, 6, 6a, 6b and 7 were tested for inhibition of colony formation potential in combination with one or more of the following agents in MIA PaCa-2 or SW1990 pancreatic cancer cells: • EGFR inhibitor: Afatinib, KRAS-G12C inhibitor: AMG 510, KRAS-G12C inhibitor: MRTX849, KRAS-G12D inhibitor: MRTX1133, ERK1/2 inhibitor: LY3214996 and BVD-523, BRAF inhibitor: Encorafenib, pan-RAF inhibitor: LXH254, PRMT5 inhibitor: compound 24 of WO 2019116302, Type I PRMT inhibitor: GSK3368715, PI3K inhibitor: BYL719, FGFR inhibitor: Nintedanib, CDK4/6 inhibitor: Abemaciclib, and other chemotherapeutic agent: Gemcitabine.
# Colony formation assay: MIA PaCa-2 cells or SW1990 cells were seeded at 500 cells per well or 1500 cells/well, respectively in 48 well tissue culture plate and cells were allowed to settle overnight (16 to 20 h). On the following day, cells were treated with various concentrations of targeted agents to generate IC50 with or without increasing concentrations of SOS1 inhibitor (as depicted in the figures), and the assay plates were incubated under normal cell culture conditions. After 7 days of drug treatment, media was removed from each well and plates were washed with PBS. Cell colonies were stained with crystal violet solution for 2-5 min. Plate was then washed carefully under tap water and air dried. For quantitation, 200 μL destaining solution containing 10% Glacial acetic acid was added to each well and stained colonies were allowed to solubilize for 20-30 min on plate shaker. After solubilization, absorbance of the extracted stain was recorded in BioTek Synergy Neo U plate reader at 590 nm. Absorbance values were directly proportional to colony growth.
# [2] = system: MIA PaCa-2 human pancreatic cancer xenograft; assay: In vivo efficacy, Compound 4b combined with Afatinib or Compound 24 of WO 2019116302, xenograft; parameters: species or system nude mice; conditions: single agent: Compound 4b 15 mg/kg b.i.d.; Afatinib 12.5 mg/kg q.d.; Compound 24 of WO 2019116302 1.0 mg/kg b.i.d.
# [3] = system: MIA PaCa-2 human pancreatic cancer xenograft; assay: In vivo efficacy, Compound 1 or 4b combined with AMG 510, xenograft; parameters: species or system nude mice; conditions: single agent; for tumor growth inhibition: 30 mg/kg b.i.d.
# [4] = system: MIA PaCa-2 human pancreatic cancer xenograft; assay: In vivo efficacy, Compound 7 combined with AMG 510, xenograft; parameters: species or system nude mice; conditions: single agent
# Source text: MIA PaCa-2 tumor fragments were implanted subcutaneously in the right flank region of nude mice. Tumor-bearing mice were randomized once the tumors reached an average volume of ˜155-164 mm^3 (tumor volume range 66-298 mm^3).
# [5] = system: MIA PaCa-2 xenograft; assay: In vivo efficacy, Compound 5 combined with Compound 24 of WO 2019116302, xenograft; parameters: species or system nude mice; conditions: single agent: Compound 5 50 mg/kg b.i.d.; Compound 24 of WO 2019116302 dose not given
# Method: Compound 5 was tested in combination with Compound 24 of WO 2019116302 in vivo in MIA PaCa-2 xenograft model in nude mice.
# 20×10^6 MIA PaCa-2 cells were injected subcutaneously in the presence of PBS and Matrigel in 1:1 ratio in nude mice.
# [6] = system: MIA PaCa-2 human pancreatic cancer xenograft; assay: In vivo efficacy, Compound 7 combined with Afatinib, Compound 24 of WO 2019116302 or Ulixertinib, xenograft; parameters: species or system nude mice; conditions: single agent, Compound 7 15 mg/kg b.i.d.
# [7] = system: MIA PaCa-2 human pancreatic cancer xenograft; assay: In vivo efficacy, Compound 7 combined with LXH254, xenograft; parameters: species or system nude mice; conditions: single agent: Compound 7 5 mg/kg q.d.; LXH254 50 mg/kg b.i.d.
smiles,measurement,setting,value
"COC1(C)C(=O)N(C)c2cc3c(N[C@H](C)c4cccc(C(F)(F)C(C)(C)O)c4F)nc(C)nc3cc21 (mixture of isomers) [Compound 4, (R&S)-4-(((R)-1-(3-(1,1-difluoro-2-hydroxy-2-methylpropyl)-2-fluorophenyl)ethyl)amino)-8-methoxy-2,6,8-trimethyl-6,8-dihydro-7H-pyrrolo[2,3-g]quinazolin-7-one]",potentiation of activity of combination agents leading to inhibition of colony forming activity,[1],significant potentiation
"COC1(C)C(=O)N(C)c2cc3nc(C)nc(N[C@H](C)c4cccc(C(F)(F)C(C)(C)O)c4F)c3cc21 (mixture of isomers) [Compound 6, (R&S)-4-(((R)-1-(3-(1,1-difluoro-2-hydroxy-2-methylpropyl)-2-fluorophenyl)ethyl)amino)-6-methoxy-2,6,8-trimethyl-6,8-dihydro-7H-pyrrolo[3,2-g]quinazolin-7-one]",potentiation of activity of combination agents leading to inhibition of colony forming activity,[1],significant potentiation
"CO[C@]1(C)C(=O)N(C)c2cc3nc(C)nc(N[C@H](C)c4cccc(C(F)(F)C(C)(C)O)c4F)c3cc21 (racemic) [Compound 6a, (S/R)-4-(((R)-1-(3-(1,1-difluoro-2-hydroxy-2-methylpropyl)-2-fluorophenyl)ethyl)amino)-6-methoxy-2,6,8-trimethyl-6,8-dihydro-7H-pyrrolo[3,2-g]quinazolin-7-one]",potentiation of activity of combination agents leading to inhibition of colony forming activity,[1],significant potentiation
"Cc1nc(NC(C)c2cccc(C(F)(F)C(C)(C)O)c2)c2cc3c(cc2n1)C(C)(C)C(=O)N3C (single isomer, unassigned) [Compound 2, (R/S)-4-((1-(3-(1,1-difluoro-2-hydroxy-2-methylpropyl)phenyl)ethyl)amino)-2,6,8,8-tetramethyl-6,8-dihydro-7H-pyrrolo[2,3-g]quinazolin-7-one]",potentiation of activity of combination agents leading to inhibition of colony forming activity,[1],significant potentiation
"Cc1nc(N[C@H](C)c2cccc(C(F)(F)C(C)(O)CO)c2F)c2cc3c(cc2n1)C(C)(C)C(=O)N3C (single isomer, unassigned) [Compound 3a]",potentiation of activity of combination agents leading to inhibition of colony forming activity,[1],significant potentiation
"Cc1nc(N[C@H](C)c2cccc(C(F)(F)[C@@](C)(O)CO)c2F)c2cc3c(cc2n1)C(C)(C)C(=O)N3C (single isomer, unassigned) [Compound 3b]",potentiation of activity of combination agents leading to inhibition of colony forming activity,[1],significant potentiation
"CO[C@]1(C)C(=O)N(C)c2cc3c(N[C@H](C)c4cccc(C(F)(F)C(C)(C)O)c4F)nc(C)nc3cc21 (single isomer, unassigned) [Compound 4a]",potentiation of activity of combination agents leading to inhibition of colony forming activity,[1],significant potentiation
"COC1(C)C(=O)N(C)c2cc3c(N[C@H](C)c4cccc(C(F)(F)C(C)(C)O)c4F)nc(C)nc3cc21 (single isomer, unassigned) [Compound 4b]",tumor growth inhibition,[2],47%
same,tumor growth inhibition,[3],65.71±7.41%
same,potentiation of activity of combination agents leading to inhibition of colony forming activity,[1],significant potentiation
"COC1(C)C(=O)N(C)c2cc3nc(C)nc(N[C@H](C)c4cccc(C(F)(F)C(C)(C)O)c4F)c3cc21 (single isomer, unassigned) [Compound 6b]",potentiation of activity of combination agents leading to inhibition of colony forming activity,[1],significant potentiation
"C=CC(=O)N1CCN(c2nc(=O)n(-c3c(C)ccnc3C(C)C)c3nc(-c4c(O)cccc4F)c(F)cc23)[C@@H](C)C1 [AMG 510, 4-((S)-4-acryloyl-2-methylpiperazin-1-yl)-6-fluoro-7-(2-fluoro-6-hydroxyphenyl)-1-(2-isopropyl-4-methylpyridin-3-yl)pyrido[2,3-d]pyrimidin-2(1H)-one, reference compound]",inhibition in tumor growth,[4]; AMG 510 3 mg/kg q.d.,77.69%
same,tumor regression,[3]; AMG 510 10 mg/kg q.d.,39.43±15.22%
"CN(C)C/C=C/C(=O)Nc1cc2c(Nc3ccc(F)c(Cl)c3)ncnc2cc1O[C@H]1CCOC1 [Afatinib, (S,E)-N-(4-((3-chloro-4-fluorophenyl)amino)-7-((tetrahydrofuran-3-yl)oxy)quinazolin-6-yl)-4-(dimethylamino)but-2-enamide]",tumor growth inhibition,[2],38%
"Cc1nc(N[C@H](C)c2cccc(C(F)(F)C(C)(C)O)c2F)c2cc3c(cc2n1)C(C)(C)C(=O)N3C [Compound 1, (R)-4-((1-(3-(1,1-Difluoro-2-hydroxy-2-methylpropyl)-2-fluorophenyl)ethyl)amino)-2,6,8,8-tetramethyl-6,8-dihydro-7H-pyrrolo[2,3-g]quinazolin-7-one]",tumor growth inhibition,[3],63.82±8.32%
same,potentiation of activity of combination agents leading to inhibition of colony forming activity,[1],significant potentiation
"Cc1nc(N[C@H](C)c2cccc(C(F)(F)C(C)(O)CO)c2F)c2cc3c(cc2n1)C(C)(C)C(=O)N3C (stereo partly drawn) [Compound 3, 4-(((R)-1-(3-((R&S)-1,1-Difluoro-2,3-dihydroxy-2-methylpropyl)-2-fluorophenyl)ethyl)amino)-2,6,8,8-tetramethyl-6,8-dihydro-7H-pyrrolo[2,3-g]quinazolin-7-one]",potentiation of activity of combination agents leading to inhibition of colony forming activity,[1],significant potentiation
"Cc1nc(N[C@H](C)c2cc(N)cc(C(F)(F)F)c2)c2cc(-c3ccc(=O)n(C)c3)c3c(c2n1)CCC3 [Compound 5, (R)-5-(4-((1-(3-amino-5-(trifluoromethyl)phenyl)ethyl)amino)-2-methyl-8,9-dihydro-7H-cyclopenta[h]quinazolin-6-yl)-1-methylpyridin-2(1H)-one]",tumor growth inhibition,[5],59%
same,potentiation of activity of combination agents leading to inhibition of colony forming activity,[1],significant potentiation
"CO[C@]1(C)C(=O)N(C)c2cc3c(N[C@H](C)c4cc(N)cc(C(F)(F)F)c4)nc(C)nc3cc21 [Compound 7, (S)-4-(((R)-1-(3-amino-5-(trifluoromethyl)phenyl)ethyl)amino)-8-methoxy-2,6,8-trimethyl-6,8-dihydro-7H-pyrrolo[2,3-g]quinazolin-7-one]",inhibition in tumor growth,[6],32.86%
same,inhibition in tumor growth,[4]; Compound 7 5 mg/kg q.d.,30.40%
same,inhibition in tumor growth,[4]; Compound 7 10 mg/kg q.d.,43.42%
same,inhibition in tumor growth,[4]; Compound 7 20 mg/kg q.d.,52.71%
same,potentiation of activity of combination agents leading to inhibition of colony forming activity,[1],significant potentiation
same,inhibition in tumor growth,[7],39.82%
"Nc1nc2cc(CCC3=C[C@@H](n4ccc5c(N)ncnc54)[C@H](O)[C@@H]3O)cc(F)c2cc1Cl [Compound 24 of WO 2019116302, (1S,2R,5R)-3-(2-(2-amino-3-chloro-5-fluoroquinolin-7-yl)ethyl)-5-(4-amino-7H-pyrrolo[2,3-d]pyrimidin-7-yl)cyclopent-3-ene-1,2-diol, reference compound]",tumor growth inhibition,[5],73%
same,tumor growth inhibition,[2],52%
"Cc1ccc(NC(=O)c2ccnc(C(F)(F)F)c2)cc1-c1cc(OCCO)nc(N2CCOCC2)c1 [LXH254, N-(3-(2-(2-hydroxyethoxy)-6-morpholinopyridin-4-yl)-4-methylphenyl)-2-(trifluoromethyl)isonicotinamide, reference compound]",inhibition in tumor growth,[7],34.96%
